Assay results: the supplement of paper PMC10307832

What was measured:
Test in all cases: relative viability (nuclei count vs DMSO), 5 days (fraction); higher = more cells survive
[1] = compound: CC1=CC=C(C=C1)C(=O)CN2C3=C(CCCC3)SC2=N [Pifithrin_alpha] + CC(C)C[C@H](NC(=O)[C@H](Cc1ccccc1)NC(=O)c1cnccn1)B(O)O [Bortezomib] (partner 0.002 µM)
Outline: (§1)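 After 5 days of treatment, lung cancer cells in 1536-well plates were fixed and stained in a single step (final 0.05% Triton X-100, 1% formaldehyde, 1 ug/ml Hoechst) and their nuclei counted on 4× images. Treatment had been applied by pin tool the day after seeding as one drug alone or as a fixed anchor-drug dose with five library-drug doses (not always all listed) in √10 steps. Relative viability is the nuclei count of treated wells divided by that of vehicle wells, and values are medians of duplicate plates.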

[2] = compound: CNC(=O)c1ccccc1Sc1ccc2c(/C=C/c3ccccn3)n[nH]c2c1 [Axitinib] + CC(C)C[C@H](NC(=O)[C@H](Cc1ccccc1)NC(=O)c1cnccn1)B(O)O [Bortezomib] (partner 0.002 µM)
Outline: as §1

[3] = compound: CNC(=O)c1ccccc1Sc1ccc2c(/C=C/c3ccccn3)n[nH]c2c1 [Axitinib] + Cc1nc(Nc2ncc(C(=O)Nc3c(C)cccc3Cl)s2)cc(N2CCN(CCO)CC2)n1 [Dasatinib] (partner 0.075 µM)
Outline: as §1

[4] = compound: CNC(=O)c1ccccc1Sc1ccc2c(/C=C/c3ccccn3)n[nH]c2c1 [Axitinib] + C[C@@H](Oc1cc(-c2cnn(C3CCNCC3)c2)cnc1N)c1c(Cl)ccc(F)c1Cl [Crizotinib] (partner 1 µM)
Outline: as §1

PC-3 [JPC-3]
relative viability ([1]; first compound 1 µM): 0.819
relative viability ([1]; first compound 3.162 µM): 0.877
relative viability ([1]; first compound 10 µM): 0.77
relative viability ([1]; first compound 31.62 µM): 0.583
relative viability ([1]; first compound 100 µM): 0.613
relative viability ([2]; first compound 0.005 µM): 0.98
relative viability ([2]; first compound 0.05 µM): 0.807
relative viability ([2]; first compound 0.1581 µM): 0.833
relative viability ([2]; first compound 0.5 µM): 0.964
relative viability ([3]; first compound 0.005 µM): 1.07
relative viability ([3]; first compound 0.01581 µM): 1.01
relative viability ([3]; first compound 0.05 µM): 1.02
relative viability ([3]; first compound 0.1581 µM): 1
relative viability ([3]; first compound 0.5 µM): 1.01
relative viability ([4]; first compound 0.005 µM): 1.04
relative viability ([4]; first compound 0.05 µM): 0.943
relative viability ([4]; first compound 0.1581 µM): 0.95
relative viability ([4]; first compound 0.5 µM): 1.11

HCC-366
relative viability ([1]; first compound 1 µM): 1.33
relative viability ([1]; first compound 3.162 µM): 0.706
relative viability ([1]; first compound 10 µM): 1.07
relative viability ([1]; first compound 100 µM): 1.1
relative viability ([2]; first compound 0.005 µM): 0.977
relative viability ([2]; first compound 0.01581 µM): 0.994
relative viability ([2]; first compound 0.05 µM): 1.11
relative viability ([2]; first compound 0.1581 µM): 1
relative viability ([2]; first compound 0.5 µM): 1.13
relative viability ([3]; first compound 0.005 µM): 0.7
relative viability ([3]; first compound 0.01581 µM): 0.646
relative viability ([3]; first compound 0.05 µM): 0.711
relative viability ([3]; first compound 0.1581 µM): 0.581
relative viability ([3]; first compound 0.5 µM): 0.455
relative viability ([4]; first compound 0.005 µM): 0.628
relative viability ([4]; first compound 0.01581 µM): 0.657
relative viability ([4]; first compound 0.05 µM): 0.603
relative viability ([4]; first compound 0.1581 µM): 0.487
relative viability ([4]; first compound 0.5 µM): 0.669

NCI-H2405
relative viability ([1]; first compound 1 µM): 0.869
relative viability ([1]; first compound 3.162 µM): 0.935
relative viability ([1]; first compound 10 µM): 0.925
relative viability ([1]; first compound 31.62 µM): 0.857
relative viability ([1]; first compound 100 µM): 0.953
relative viability ([2]; first compound 0.005 µM): 1.03
relative viability ([2]; first compound 0.01581 µM): 0.982
relative viability ([2]; first compound 0.05 µM): 1.03
relative viability ([2]; first compound 0.1581 µM): 0.946
relative viability ([2]; first compound 0.5 µM): 0.958
relative viability ([3]; first compound 0.005 µM): 0.203
relative viability ([3]; first compound 0.01581 µM): 0.202
relative viability ([3]; first compound 0.05 µM): 0.232
relative viability ([3]; first compound 0.1581 µM): 0.214
relative viability ([3]; first compound 0.5 µM): 0.199
relative viability ([4]; first compound 0.005 µM): 0.822
relative viability ([4]; first compound 0.01581 µM): 0.972
relative viability ([4]; first compound 0.05 µM): 0.831
relative viability ([4]; first compound 0.1581 µM): 0.754
relative viability ([4]; first compound 0.5 µM): 0.852

LU99A
relative viability ([1]; first compound 1 µM): 1.09
relative viability ([1]; first compound 3.162 µM): 1.24
relative viability ([1]; first compound 10 µM): 1.19
relative viability ([1]; first compound 100 µM): 1.24
relative viability ([2]; first compound 0.005 µM): 1.1
relative viability ([2]; first compound 0.01581 µM): 1.09
relative viability ([2]; first compound 0.05 µM): 1.13
relative viability ([2]; first compound 0.1581 µM): 1.12
relative viability ([2]; first compound 0.5 µM): 1.12
relative viability ([3]; first compound 0.005 µM): 0.626
relative viability ([3]; first compound 0.01581 µM): 0.563
relative viability ([3]; first compound 0.05 µM): 0.589
relative viability ([3]; first compound 0.1581 µM): 0.577
relative viability ([3]; first compound 0.5 µM): 0.475
relative viability ([4]; first compound 0.005 µM): 0.552
relative viability ([4]; first compound 0.01581 µM): 0.541
relative viability ([4]; first compound 0.05 µM): 0.628
relative viability ([4]; first compound 0.1581 µM): 0.525
relative viability ([4]; first compound 0.5 µM): 0.648

LCLC-97TM1
relative viability ([1]; first compound 3.162 µM): 0.596
relative viability ([1]; first compound 10 µM): 0.397
relative viability ([1]; first compound 100 µM): 0.487
relative viability ([2]; first compound 0.005 µM): 0.732
relative viability ([2]; first compound 0.01581 µM): 0.419
relative viability ([2]; first compound 0.05 µM): 0.585
relative viability ([2]; first compound 0.1581 µM): 0.515
relative viability ([2]; first compound 0.5 µM): 0.736
relative viability ([3]; first compound 0.005 µM): 0.834
relative viability ([3]; first compound 0.01581 µM): 0.722
relative viability ([3]; first compound 0.05 µM): 0.857
relative viability ([3]; first compound 0.1581 µM): 0.753
relative viability ([3]; first compound 0.5 µM): 0.842
relative viability ([4]; first compound 0.005 µM): 0.433
relative viability ([4]; first compound 0.01581 µM): 0.524
relative viability ([4]; first compound 0.05 µM): 0.265
relative viability ([4]; first compound 0.1581 µM): 0.377
relative viability ([4]; first compound 0.5 µM): 0.314

A-427
relative viability ([1]; first compound 1 µM): 0.953
relative viability ([1]; first compound 3.162 µM): 0.957
relative viability ([1]; first compound 10 µM): 0.916
relative viability ([1]; first compound 31.62 µM): 0.722
relative viability ([1]; first compound 100 µM): 0.928
relative viability ([2]; first compound 0.005 µM): 1.07
relative viability ([2]; first compound 0.01581 µM): 1.04
relative viability ([2]; first compound 0.05 µM): 0.988
relative viability ([2]; first compound 0.1581 µM): 1.06
relative viability ([2]; first compound 0.5 µM): 1.13
relative viability ([3]; first compound 0.005 µM): 0.69
relative viability ([3]; first compound 0.01581 µM): 0.644
relative viability ([3]; first compound 0.05 µM): 0.807
relative viability ([3]; first compound 0.1581 µM): 0.697
relative viability ([3]; first compound 0.5 µM): 0.769
relative viability ([4]; first compound 0.005 µM): 1
relative viability ([4]; first compound 0.01581 µM): 0.958
relative viability ([4]; first compound 0.05 µM): 0.82
relative viability ([4]; first compound 0.1581 µM): 0.898
relative viability ([4]; first compound 0.5 µM): 0.901

EMC-BAC-2
relative viability ([1]; first compound 1 µM): 1.07
relative viability ([1]; first compound 3.162 µM): 1.09
relative viability ([1]; first compound 10 µM): 0.99
relative viability ([1]; first compound 31.62 µM): 0.8
relative viability ([1]; first compound 100 µM): 1.15
relative viability ([2]; first compound 0.005 µM): 1.13
relative viability ([2]; first compound 0.01581 µM): 1.04
relative viability ([2]; first compound 0.05 µM): 1.09
relative viability ([2]; first compound 0.1581 µM): 1.13
relative viability ([2]; first compound 0.5 µM): 1.07
relative viability ([3]; first compound 0.005 µM): 0.353
relative viability ([3]; first compound 0.01581 µM): 0.327
relative viability ([3]; first compound 0.05 µM): 0.315
relative viability ([3]; first compound 0.1581 µM): 0.379
relative viability ([3]; first compound 0.5 µM): 0.383
relative viability ([4]; first compound 0.005 µM): 0.819
relative viability ([4]; first compound 0.01581 µM): 0.859
relative viability ([4]; first compound 0.05 µM): 0.766
relative viability ([4]; first compound 0.1581 µM): 0.754
relative viability ([4]; first compound 0.5 µM): 0.719

NCI-H2228
relative viability ([1]; first compound 1 µM): 0.919
relative viability ([1]; first compound 3.162 µM): 1.03
relative viability ([1]; first compound 10 µM): 0.926
relative viability ([1]; first compound 31.62 µM): 0.86
relative viability ([1]; first compound 100 µM): 0.722
relative viability ([2]; first compound 0.005 µM): 1.31
relative viability ([2]; first compound 0.01581 µM): 0.829
relative viability ([2]; first compound 0.05 µM): 0.886
relative viability ([2]; first compound 0.1581 µM): 0.954
relative viability ([2]; first compound 0.5 µM): 1.07
relative viability ([3]; first compound 0.005 µM): 0.471
relative viability ([3]; first compound 0.01581 µM): 0.616
relative viability ([3]; first compound 0.05 µM): 0.558
relative viability ([3]; first compound 0.1581 µM): 0.476
relative viability ([3]; first compound 0.5 µM): 0.697
relative viability ([4]; first compound 0.005 µM): 0.443
relative viability ([4]; first compound 0.01581 µM): 0.473
relative viability ([4]; first compound 0.05 µM): 0.384
relative viability ([4]; first compound 0.1581 µM): 0.612
relative viability ([4]; first compound 0.5 µM): 0.438
